From PubChem BioAssay (NCI)
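Grown in 96-well plates, cells were treated for 48 hours with each compound at five concentrations. Insufficient inhibition: endpoint recorded as highest concentration tested. GI50 is the concentration that inhibits growth by half. The concentration for full growth arrest is given as TGI.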

Legend:
Assay in all cases: growth of human tumour cells (NCI), 48 h
[1] = tested on: MDA-MB-231 breast
[2] = tested on: SNB-19 CNS
[3] = tested on: EKVX NSCLC
[4] = tested on: U251 CNS
[5] = tested on: ACHN renal
[6] = tested on: A549 NSCLC
[7] = tested on: UO-31 renal
[8] = tested on: SK-OV-3 ovarian
[9] = tested on: MALME-3M melanoma
[10] = tested on: NCI/ADR-RES ovarian
[11] = tested on: HCC-2998 colon
[12] = tested on: SF-539 CNS
[13] = tested on: HT29 colon
[14] = tested on: SW-620 colon
[15] = tested on: HCT-15 colon
[16] = tested on: RXF 393 renal
[17] = tested on: MDA-MB-435
[18] = tested on: SNB-75 CNS
[19] = tested on: MCF7 breast
[20] = tested on: NCI-H460 lung
[21] = tested on: SF-268 CNS
[22] = tested on: SK-MEL-28 melanoma
[23] = tested on: HOP-92 NSCLC
[24] = tested on: OVCAR-8 ovarian
[25] = tested on: OVCAR-4 ovarian
[26] = tested on: K-562 leukemia
[27] = tested on: COLO 205 colon
[28] = tested on: NCI-H226 lung

SMILES: CCN(CC)c1ccc(C=C2C(=O)NC(=S)NC2=O)cc1
- GI50 [1]: 3.49 µM
- TGI [1]: 10.6 µM
- GI50 [2]: 3.55 µM
- TGI [2]: 13.8 µM
- GI50 [3]: 14 µM
- TGI [3]: 28.6 µM
- GI50 [4]: 2.9 µM
- TGI [4]: 7.59 µM
- GI50 [5]: 5.82 µM
- TGI [5]: 18.5 µM
- GI50 [6]: 12.1 µM
- TGI [6]: 28 µM
- GI50 [7]: 1.62 µM
- TGI [7]: 3.61 µM
- GI50 [8]: 14.8 µM
- TGI [8]: 28 µM
- GI50 [9]: 2.98 µM
- TGI [9]: 7.49 µM
- GI50 [10]: 3.39 µM
- TGI [10]: 12.2 µM
- GI50 [11]: 1.99 µM
- TGI [11]: 3.73 µM
- GI50 [12]: 2.77 µM
- TGI [12]: 6.15 µM
- GI50 [13]: 1.86 µM
- TGI [13]: 3.64 µM
- GI50 [14]: 1.91 µM
- TGI [14]: 4.32 µM
- GI50 [15]: 3.24 µM
- TGI [15]: 9.22 µM
- GI50 [16]: 2.07 µM
- TGI [16]: 3.72 µM
- GI50 [17]: 2.31 µM
- TGI [17]: 7.1 µM
- GI50 [18]: 2.66 µM
- TGI [18]: 8.75 µM
- GI50 [19]: 3.85 µM
- TGI [19]: 13.2 µM
- GI50 [20]: 3.99 µM
- TGI [20]: 15.1 µM
- GI50 [21]: 3.83 µM
- TGI [21]: 13.7 µM
- GI50 [22]: 2.43 µM
- TGI [22]: 5.1 µM
- GI50 [23]: 2.6 µM
- TGI [23]: 7.78 µM
- GI50 [24]: 3.83 µM
- TGI [24]: 13.4 µM
- GI50 [25]: 7.58 µM
- TGI [25]: 19.5 µM
- GI50 [26]: 3.1 µM
- TGI [26]: 10.7 µM
- GI50 [27]: 2.49 µM
- TGI [27]: 6.62 µM
- GI50 [28]: 3.24 µM
- TGI [28]: 10.2 µM
